Measurements published in ChEMBL document CHEMBL1134659, “Amino acid/spermine conjugates: polyamine amides as potent spermidine uptake inhibitors” (J Med Chem, 2001).

What was measured:
Type in all cases: functional, cell-based
[1] = test system: MDA-MB-231; assay: Inhibition of [3H]spermidine transport into MDA-MB-231 (human breast cancer) cells.
[2] = test system: MDA-MB-231; assay: In vitro inhibition of [3H]spermidine uptake in MDA-MB-231 (Human breast cancer) cells.
[3] = test system: MDA-MB-231; assay: In vitro inhibition of MDA-MB-231 (Human breast caner) cell growth.

EC50 [3] [µM] | SMILES | Ki [1] [nM] | Ki [2] [nM]
3 | NCCCNCCCCNCCCNC(=O)[C@@H](N)CCCN |  | 47
> 300 | CC(C)C[C@H](N)C(=O)NCCCNCCCCNCCCN |  | 46
8 | CC(C)(N)C(=O)NCCCNCCCCNCCCN |  | 191
> 300 | NCCCNCCCCNCCCNC(=O)[C@@H](N)CCC(N)=O |  | 177
26 | NCCCNCCCCNCCCNC(=O)[C@@H](N)CO |  | 55
8 | NCCCNCCCCNCCCNC(=O)[C@@H](N)CC1CCCCC1 |  | 196
16 | CC(C)[C@H](N)C(=O)NCCCNCCCCNCCCN |  | 84
> 100 | NCCCNCCCCNCCCNC(=O)[C@@H](N)Cc1ccccc1 |  | 443
95 | NCCCNCCCCNCCCNC(=O)[C@@H](N)Cc1ccc(O)cc1 |  | 116
15 | NCCCNCCCCNCCCNC(=O)[C@@H](N)Cc1c[nH]c2ccccc12 |  | 119
> 300 | C[C@H](N)C(=O)NCCCNCCCCNCCCN |  | 144
9 | CCC(C)[C@H](N)C(=O)NCCCNCCCCNCCCN (stereo partly drawn) |  | 150
98 | NCCCNCCCCNCCCNC(=O)[C@@H](N)CC(N)=O |  | 95
6 | C[C@H](O)[C@H](N)C(=O)NCCCNCCCCNCCCN |  | 213
> 300 | CSCC[C@H](N)C(=O)NCCCNCCCCNCCCN |  | 65
93 | NCCCNCCCCNCCCNC(=O)[C@@H]1CCCN1 |  | 38

Further lines, the compound ahead of its results:

SMILES | EC50 [3] [µM] | Ki [1] [nM] | Ki [2] [nM]
NCCCNCCCCNCCCNC(=O)CC12CC3CC(CC(C3)C1)C2 |  | 256 | 
NCCCNCCCCNCCCN [SPERMINE] |  | 280 | 
CC(C)(C)[C@H](N)C(=O)NCCCNCCCCNCCCN | 11 |  | 127
CC(C)(C)OC(=O)NCCCNCCCCNCCCN |  | 86 | 
CC(=O)NCCCNCCCNCCCN |  | > 1000 | 
NCCCNCCCCNCCCNC(=O)C12CC3CC(CC(C3)C1)C2 |  | 672 | 
NCCCNCCCCNCCC(=O)NCCCCCNC(=O)[C@H](CC(N)=O)NC(=O)Cc1ccc(O)cc1O [JORO SPIDER TOXIN 3] |  | 190 | 
NCCCNCCCCNCCCNC(=O)CN | > 100 |  | 87
NCCCCN [PUTRESCINE] |  | 1280 | 
N=C(N)NCCCCCCC(=O)NC(O)C(=O)NCCCCNCCCN (stereo not drawn) |  | 81 | 
NCCCNCCCCNCCCNC(=O)Cc1cccc2ccccc12 |  | 178 | 
CCCCCC(=O)NCCCNCCCCNCCCN |  | 284 | 
NCCCNCCCCNCCCNC(=O)CCN | > 300 |  | 65
NCCCNCCCCNCCCNC(=O)[C@H](N)Cc1c[nH]c2ccccc12 | 205 |  | 63
CC(C)[C@@H](N)C(=O)NCCCNCCCCNCCCN | 9 |  | 58
NCCCCNCCCN [SPERMIDINE] |  | 113 | 
